{
  "source": "patent US20100160445A1",
  "about": "“Synergistic Mixtures of OPP and DGH” (priority 2002, published 2010)",
  "test_system": "mixed inoculum of bacteria",
  "experiment": "MIC and synergy (K) in nutrient broth, microtiter plates",
  "type": "cell-based",
  "protocol": "Stock solutions of each product were prepared in sterile distilled water. Synergism was measured by the method first described by F. C. Kull, P. C. Eisman, H. D. Sylwestrowicz and R. L. Mayer in Applied Microbiology, 9, 538-41 ([…]). This manner of determining synergism has been widely used and is industrially acceptable. It is believed that the specified method is sufficient in explaining the process. However for a further description, reference can be made to U.S. Pat. No. 3,231,509 and its file history, where this type of data was considered acceptable.\n• 1. Incubator capable of maintaining a variable temperature range (25-45 C) • 2. Samples of each biocide or test compound to be examined • 3. Microtiter plates—96 well with lid, sterile. • 4. 8-12 channel micropipetting device capable of pipetting 0-250 ul volumes • 5. Micropipette tips capable of holding up to 250 ul volumes • 6. Sterile microbiological culture broth. Trypticase Soy Broth (TSB) or Nutrient Broth (NB) is recommended for bacteria and Sabouraud Maltose Broth (SMB) or Sabouraud Dextrose Broth (SDB) is recommended for yeasts and molds. In the case of this particular study the microbiological culture medium was Nutrient Broth at pH 7.0, 8.0 and 9.0. • 7. Pure cultures of microorganisms of choice grown on appropriate agar medium • 8. Sterile distilled water • 9. 100 mL volumetric flasks (one for each biocide to be tested) • 10. Sterile 10 mL tubes of Phosphate buffer (Butterfield's buffer pH 7.2+/−0.2). Contains purified water, monobasic potassium phosphate and sodium hydroxide for pH adjustment. • 11. Sterile cotton swabs • 12. 0.5 MacFarland Turbidity Standard\nThe day before testing, perform a streak plate of each organism to be tested on an appropriate agar medium (Trypticase Soy Agar). Organisms tested in this study were: Wild strain bacteria isolated from previously contaminated industrial systems and which were identified as: Pseudomonas sp., Escherchia coli , Enterobacter sp., Alcaligenes sp. and Alcaligenes faecalis. On the day of the test, use a sterile cotton swab to harvest some of the growth. Place swab into a tube containing 10 mL sterile phosphate buffer. Compare and adjust the turbidity of the organisms in the tube to 1×10^8 cfu/mL using a 0.5 MacFarland Turbidity Standard. Dilute the 10 mL tube into 90 mL of sterile 2× nutrient broth at pH 7.0, 8.0 and 9.0.\n1. Design the layout of the microtiter plates based on the number of organisms to test and the number of biocides and desired concentrations to test. A separate microtiter plate is required for testing each biocide alone, in addition to the combination microtiter plate. 2. Prepare a working stock solution of each biocide to be tested. For the combination microtiter plate, the working stock solution of Biocide A will be 8× the concentration desired in the first well of the combination microtiter plate. The working stock solution of Biocide B will be 4× the concentration desired in the first well of the combination microtiter plate. For the alone microtiter plates, the working stock solutions of Biocide A and Biocide B will both be 4× the concentration desired in the first well of the single biocide microtiter plates.\nDodecylguanidine hydrochloride: (For combination plates) A solution of this product which is 35% active, was made as follows: […]=8000 ppm active=8000/0.35=22,857 ppm, 2.28 g into 100 mL sterile diH2O. Levels to test are: 1000 ppm, 500 ppm, 250 ppm, 125 ppm, 62.5 ppm, 31.2 ppm, 15.6 ppm, 7.8 ppm, 3.9 ppm, 1.95 ppm\nOrtho-PhenylPhenol: (For combination plates) Make a solution of this product which is 99% active, 4×125=500 ppm active=500/0.99=505 ppm, 0.05 g into 100 mL MeOH and sterile diH2O. Level to test is 125 ppm.\n3. Place 50 ul of sterile distilled water in all of the rows in columns 1 through 10, and 100 ul of sterile distilled water in all of the rows in columns 11 and 12 of the 96 well combination microtiter plate. […]",
  "note": "Where a name gives a salt, the structure may show the parent alone. Read-outs that look alike come from different tables or passages of the source.",
  "data": [
    {"smiles": "CCCCCCCCCCCCNC(=N)N", "note": "[DGH, Dodecylguanidine Hydrochloride]", "values": [
      {"measurement": "MIC", "setting": "pH 7, read-out: MIC, biocide alone", "value": 62.5, "unit": "µg/mL"},
      {"measurement": "Synergy Index", "setting": "pH 7.0, 62.5 ppm DGH alone (100:0)", "value": 1.00},
      {"measurement": "MIC", "setting": "pH 8, read-out: MIC, biocide alone", "value": 15.6, "unit": "µg/mL"},
      {"measurement": "Synergy Index", "setting": "pH 8.0, 15.6 ppm DGH alone (100:0)", "value": 1.00},
      {"measurement": "MIC", "setting": "pH 9, read-out: MIC, biocide alone", "value": 15.6, "unit": "µg/mL"},
      {"measurement": "Synergy Index", "setting": "pH 9.0, 15.6 ppm DGH alone (100:0)", "value": 1.00}
    ]}
  ]
}
